The text below walks through data of US8513232B2, “Substituted spirocyclic piperidine derivatives as histamine-3 (H3) receptor ligands” (Cephalon, Inc., priority 2008, dated 2013).

Usually Ki stands for a measure of affinity in units of concentration, obtained from inhibition or displacement. The term melting point denotes the temperature, or range, at which the solid turns liquid.

SMILES strings stand for the structures. Some results are limits rather than exact numbers.

The target of data set [1] is T1, human H3 receptor (Homo sapiens, UniProt Q9Y5N1).
T1 construct: expressed in transfected cells
T1 sequence (Q9Y5N1 whole entry): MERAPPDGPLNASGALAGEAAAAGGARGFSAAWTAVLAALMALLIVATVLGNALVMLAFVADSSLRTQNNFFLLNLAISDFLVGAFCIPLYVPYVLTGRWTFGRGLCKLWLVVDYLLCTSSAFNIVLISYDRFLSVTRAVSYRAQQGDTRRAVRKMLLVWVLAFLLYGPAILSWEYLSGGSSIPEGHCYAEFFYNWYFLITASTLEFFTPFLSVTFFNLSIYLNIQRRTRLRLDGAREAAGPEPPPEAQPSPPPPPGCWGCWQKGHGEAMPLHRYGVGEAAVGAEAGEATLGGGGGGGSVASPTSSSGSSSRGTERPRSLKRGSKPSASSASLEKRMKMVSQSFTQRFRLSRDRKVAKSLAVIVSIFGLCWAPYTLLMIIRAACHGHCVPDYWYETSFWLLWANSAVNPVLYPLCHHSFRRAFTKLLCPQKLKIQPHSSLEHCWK
Briefly: Human H3 radioligand binding ([3H]-N-alpha-methylhistamine, SPA). The following applies: Table A; human H3 binding; read-out: Human Ki. The procedure, abridged:
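Compounds (0.01 nM-30 μM) competed with approximately 1 nM [3H]-N-alpha-methylhistamine for human H3 receptor in membranes of stably transfected CHO cells, 10 μg protein per well, in Tris-HCl pH 7.4/MgCl2/BSA buffer for 4 h at room temperature. Bound radioligand measured by scintillation proximity; 10 μM clobenpropit gave non-specific binding.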

For data set [2], the target named is T2, rat histamine H3 receptor (Rattus norvegicus, UniProt Q9QYN8).
T2 construct: encoding the entire 445-amino-acid rat histamine H3 receptor; expressed in transfected cells; membrane preparation
T2 sequence (Q9QYN8 whole entry): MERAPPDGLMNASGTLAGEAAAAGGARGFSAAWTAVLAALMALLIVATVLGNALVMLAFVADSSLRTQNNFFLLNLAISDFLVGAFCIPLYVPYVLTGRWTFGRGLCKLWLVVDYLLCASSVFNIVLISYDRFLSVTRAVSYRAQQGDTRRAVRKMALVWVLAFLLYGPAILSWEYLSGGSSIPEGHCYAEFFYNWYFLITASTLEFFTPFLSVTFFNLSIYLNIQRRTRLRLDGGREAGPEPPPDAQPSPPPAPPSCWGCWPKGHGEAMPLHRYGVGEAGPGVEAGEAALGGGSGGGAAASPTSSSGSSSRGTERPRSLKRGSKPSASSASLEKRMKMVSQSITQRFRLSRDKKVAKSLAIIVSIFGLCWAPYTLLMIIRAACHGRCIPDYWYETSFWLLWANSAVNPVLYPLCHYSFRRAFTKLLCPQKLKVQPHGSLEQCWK
Nature of the data set: Rat H3 radioligand binding ([3H]-N-alpha-methylhistamine, SPA). The following applies: Table A; rat H3 binding; read-out: Rat Ki. The procedure, abridged:
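SPA-bead binding assay using [3H]-N-alpha-methylhistamine (approximately 1 nM final) with test compounds from 0.01 nM to 30 μM. Rat H3 receptor membranes came from stably transfected CHO-A3 cells; incubation ran 4 h at room temperature, in the dark, in Tris pH 7.4 buffer with MgCl2 and BSA. Clobenpropit (10 μM) gave non-specific binding.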

Turning to `CCOC(=O)c1ccc(-c2ccc3c(c2)COC2(CCN(C4CCC4)CC2)O3)cc1` [Example 28], the melting point was 148 to 149 °C. In addition, the Ki in data set [1] was below 0.2 µM. Further, the Ki in data set [2] was below 0.2 µM.

As for `CN(C)C(=O)c1ccc(-c2ccc3c(c2)COC2(CCN(C4CCC4)CC2)O3)cc1` [Example 29], the melting point is 187 to 190 °C. Further, the Ki in data set [1] was below 0.2 µM. Besides, in data set [2], the Ki is below 0.2 µM.

Molecule `CCN(C)C(=O)c1ccc(-c2ccc3c(c2)COC2(CCN(C4CCC4)CC2)O3)cc1` [Example 30] showed a melting point of 140 to 141 °C. In addition, the Ki in data set [1] was below 0.2 µM. The Ki in data set [2] was below 0.2 µM.

`Cc1ccc(-c2ccc3c(c2)COC2(CCN(C4CCC4)CC2)O3)cn1` [Example 31] showed a melting point of 137 to 139 °C. Moreover, the Ki in data set [1] was below 0.2 µM. In data set [2], the Ki was below 0.2 µM.

In the case of `CNC(=O)c1ccc(-c2ccc3c(c2)COC2(CCN(C4CCC4)CC2)O3)cc1` [Example 33], the melting point lay in the range of 198 to 199 °C. Also, in data set [1], the Ki was below 0.2 µM. In data set [2], the Ki was below 0.2 µM.

As to `N#Cc1ccc(-c2ccc3c(c2)COC2(CCN(C4CCC4)CC2)O3)cn1` [Example 34], the melting point was in the range of 159.8 to 160.7 °C. In addition, in data set [1], the Ki was below 0.2 µM. Also, in data set [2], the Ki is below 0.2 µM.

In turn, `CC(C)NS(=O)(=O)c1ccc(-c2ccc3c(c2)COC2(CCN(C4CCC4)CC2)O3)cc1` [Example 35] registered a melting point of 85 to 90 °C. Also, in data set [1], the Ki was below 0.2 µM. In addition, in data set [2], the Ki is below 0.2 µM.

For `CNC(=O)c1ccc(-c2ccc3c(c2)COC2(CCN(C4CCC4)CC2)O3)cc1F` [Example 36], the melting point lay within 147.8 to 149 °C. Also, the Ki in data set [1] is below 0.2 µM. The Ki in data set [2] was below 0.2 µM.

For the molecule `O=S(=O)(c1ccc(-c2ccc3c(c2)COC2(CCN(C4CCC4)CC2)O3)cc1)N1CCCCC1` [Example 37], the melting point lay in the range of 85 to 90 °C. Also, the Ki in data set [1] is below 0.2 µM. The Ki in data set [2] is below 0.2 µM.

Regarding `c1ccc(-c2ccc3c(c2)COC2(CCN(C4CCC4)CC2)O3)cc1` [Example 39], the melting point fell in the range of 127.8 to 128.6 °C. Further, the Ki in data set [1] was below 0.2 µM. The Ki in data set [2] is below 0.2 µM.

`CN(C)C(=O)c1ccc(-c2ccc3c(c2)COC2(CCN(C4CCC4)CC2)O3)cc1F` [Example 40] returned a melting point of 172.9 to 173.5 °C. Moreover, the Ki in data set [1] is below 0.2 µM. In data set [2], the Ki was below 0.2 µM.

In the case of `O=C(c1ccc(-c2ccc3c(c2)COC2(CCN(C4CCC4)CC2)O3)cc1F)N1CCCC1` [Example 41], the melting point was in the range of 171 to 172.5 °C. Besides, in data set [1], the Ki is below 0.2 µM. Also, the Ki in data set [2] is below 0.2 µM.

`CN(C)c1ncc(-c2ccc3c(c2)COC2(CCN(C4CCC4)CC2)O3)cn1` [Example 42]: the melting point was 204.8 to 205.8 °C. In addition, in data set [1], the Ki is below 0.2 µM. For the same molecule, in data set [2], the Ki was below 0.2 µM.

Regarding `O=C(Nc1nccs1)c1ccc(-c2ccc3c(c2)COC2(CCN(C4CCC4)CC2)O3)cc1` [Example 43], the melting point lay in the range of 242 to 243 °C. For the same molecule, the Ki in data set [1] was below 0.2 µM. Also, in data set [2], the Ki was below 0.2 µM.

`OCc1ccc(-c2ccc3c(c2)COC2(CCN(C4CCC4)CC2)O3)cc1` [Example 44]: the melting point was 131 to 134 °C. Besides, in data set [1], the Ki is below 0.2 µM. The Ki in data set [2] is below 0.2 µM.

Molecule `c1ncc(-c2ccc3c(c2)COC2(CCN(C4CCC4)CC2)O3)cn1` [Example 45] registered a melting point of 153 to 155 °C. Further, in data set [1], the Ki was below 0.2 µM. Also, the Ki in data set [2] is below 0.2 µM.

`CC(=O)Nc1ccc(-c2ccc3c(c2)COC2(CCN(C4CCC4)CC2)O3)cn1` [Example 46] gave a melting point of 186 to 187 °C. Moreover, in data set [1], the Ki is below 0.2 µM. In addition, the Ki in data set [2] was below 0.2 µM.

With `Fc1ncccc1-c1ccc2c(c1)COC1(CCN(C3CCC3)CC1)O2` [Example 47], the melting point fell in the range of 95 to 100 °C. In data set [1], the Ki was below 0.2 µM. The Ki in data set [2] is below 0.2 µM.

The molecule `NS(=O)(=O)c1ccc(-c2ccc3c(c2)COC2(CCN(C4CCC4)CC2)O3)cc1` [Example 48] yielded a melting point of 195 to 200 °C. Also, the Ki in data set [1] was below 0.2 µM. Moreover, the Ki in data set [2] is below 0.2 µM.

`O=C(NCCO)c1ccc(-c2ccc3c(c2)COC2(CCN(C4CCC4)CC2)O3)cc1` [Example 50]: the melting point fell in the range of 185 to 187 °C. Besides, the Ki in data set [1] is below 0.2 µM. Further, in data set [2], the Ki was below 0.2 µM.

On to `O=C(c1cccc(-c2ccc3c(c2)COC2(CCN(C4CCC4)CC2)O3)c1)N1CCCC1` [Example 57], for which the melting point was 221.7 °C. The Ki in data set [1] is below 0.2 µM. The Ki in data set [2] is below 0.2 µM.

Molecule `NC(=O)c1cccc(-c2ccc3c(c2)COC2(CCN(C4CCC4)CC2)O3)c1` [Example 58] displayed a melting point of 109.3 °C. The Ki in data set [1] is below 0.2 µM. Further, in data set [2], the Ki is below 0.2 µM.

The molecule `CCOC(=O)c1cncc(-c2ccc3c(c2)COC2(CCN(C4CCC4)CC2)O3)c1` [Example 59] had a melting point of 239.2 °C. Also, in data set [1], the Ki is below 0.2 µM. Moreover, the Ki in data set [2] is below 0.2 µM.

`c1nc(-c2ccc3c(c2)COC2(CCN(C4CCC4)CC2)O3)cs1` [Example 66] yielded a melting point of 165 to 166 °C. Also, the Ki in data set [1] is below 0.2 µM. Besides, the Ki in data set [2] is below 0.2 µM.

Molecule `O=C(NC[C@H]1CCCO1)c1ccc(-c2ccc3c(c2)COC2(CCN(C4CCC4)CC2)O3)cc1` [Example 67] had a melting point of 184 to 186 °C. In addition, the Ki in data set [1] is below 0.2 µM. In addition, in data set [2], the Ki is below 0.2 µM.

`O=C(c1ccc(-c2ccc3c(c2)COC2(CCN(C4CCC4)CC2)O3)cc1)N1CC[C@H](F)C1` [Example 68]: the melting point is 184 to 186 °C. In addition, the Ki in data set [1] is below 0.2 µM. For the same molecule, the Ki in data set [2] was below 0.2 µM.

For `O=C(c1ccc(-c2ccc3c(c2)COC2(CCN(C4CCC4)CC2)O3)cc1)N1CC[C@@H](F)C1` [Example 69], the melting point was in the range of 185 to 186 °C. Also, in data set [1], the Ki was below 0.2 µM. In addition, the Ki in data set [2] is below 0.2 µM.

As for `c1cnc(-c2ccc3c(c2)COC2(CCN(C4CCC4)CC2)O3)cn1` [Example 71], the melting point was 114 to 115 °C. The Ki in data set [1] was below 0.2 µM. Moreover, the Ki in data set [2] was below 0.2 µM.

Turning to `Cc1nc(-c2ccc3c(c2)COC2(CCN(C4CCC4)CC2)O3)cs1` [Example 74], the melting point was 151 to 153 °C. In data set [1], the Ki was below 0.2 µM. Also, the Ki in data set [2] is below 0.2 µM.

Regarding `Cc1noc(C)c1-c1ccc2c(c1)COC1(CCN(C3CCC3)CC1)O2` [Example 76], the melting point was in the range of 123 to 127 °C. In addition, the Ki in data set [1] is below 0.2 µM. Besides, the Ki in data set [2] was below 0.2 µM.

Consider `O=C1OCCN1c1ccc2c(c1)COC1(CCN(C3CCC3)CC1)O2` [Example 77], for which the melting point is 165 to 168 °C. The Ki in data set [1] is below 0.2 µM. The Ki in data set [2] is below 0.2 µM.

`O=C1CCCN1c1ccc2c(c1)COC1(CCN(C3CCC3)CC1)O2` [Example 78] gave a melting point of 187 to 188 °C. Moreover, in data set [1], the inhibition constant (Ki) was below 0.2 µM. The Ki in data set [2] was in the range of 0.2 to 1 µM.

In turn, `CN1CCN(c2ccc3c(c2)COC2(CCN(C4CCC4)CC2)O3)C1=O` [Example 82] had a melting point of 180 to 181 °C. Besides, in data set [1], the Ki is below 0.2 µM. For the same molecule, the Ki in data set [2] is below 0.2 µM.

`CN(C)C(=O)c1cn(-c2ccc3c(c2)COC2(CCN(C4CCC4)CC2)O3)c2ccccc12` [Example 83] yielded a melting point of 100 to 110 °C. The Ki in data set [1] was below 0.2 µM. Also, the Ki in data set [2] is below 0.2 µM.

`OCc1cn(-c2ccc3c(c2)COC2(CCN(C4CCC4)CC2)O3)c2ccccc12` [Example 84] came in with a melting point of 138 to 141 °C. Also, the Ki in data set [1] is below 0.2 µM. Besides, the Ki in data set [2] was below 0.2 µM.

`CN(C)C(=O)c1cccc2c1ccn2-c1ccc2c(c1)COC1(CCN(C3CCC3)CC1)O2` [Example 85] displayed a melting point of 76 to 80 °C. The Ki in data set [1] was below 0.2 µM. The Ki in data set [2] is below 0.2 µM.

Regarding `CNC(=O)c1cn(-c2ccc3c(c2)COC2(CCN(C4CCC4)CC2)O3)cc1C` [Example 86], the melting point fell in the range of 149 to 153 °C. Also, in data set [1], the Ki was below 0.2 µM. The Ki in data set [2] was below 0.2 µM.

`Cc1cn(-c2ccc3c(c2)COC2(CCN(C4CCC4)CC2)O3)cc1CO` [Example 87]: the melting point was in the range of 133 to 135 °C. The Ki in data set [1] is below 0.2 µM. In data set [2], the Ki was below 0.2 µM.

Molecule `O=C(c1ccc(-c2ccc3c(c2)OC2(CCN(C4CCC4)CC2)O3)cc1)N1CCCC1` [Example 90] yielded a melting point of 176.8 to 177.3 °C. In addition, the Ki in data set [1] was below 0.2 µM. Moreover, the Ki in data set [2] fell in the range of 0.2 to 1 µM.

In turn, `CCOc1ccc(-c2ccc3c(c2)OC2(CCN(C4CCC4)CC2)OC3)cn1` [Example 95] showed a melting point of 54 °C. For the same molecule, the Ki in data set [1] is above 1 µM. The Ki in data set [2] is above 1 µM.

Molecule `O=C(c1cccc(-c2ccc3c(c2)OC2(CCN(C4CCC4)CC2)OC3)c1)N1CCOCC1` [Example 96] returned a melting point of 61 °C. Also, the Ki in data set [1] was in the range of 0.2 to 1 µM. Besides, the Ki in data set [2] is 0.2 to 1 µM.

In the case of `O=C(c1ccc(-c2ccc3c(c2)OC2(CCN(C4CCC4)CC2)OC3)cc1)N1CCOCC1` [Example 97], the melting point was 55 °C. The Ki in data set [1] is above 1 µM. The Ki in data set [2] lay in the range of 0.2 to 1 µM.
